Legend:
Assay type in all cases: binding
panel of 442 kinases [1] = molecular target: T1, panel of 442 kinases (Homo sapiens, UniProt P23443); conditions: kinase S6K1; compound concentration 10 µM
T1 construct: purchased KINOMEscan
Description: (§1) We assessed the selectivity of members of this scaffold using the KINOMEscan methodology across a near comprehensive panel of 442 kinases [[18,27]].

panel of 442 kinases [2] = molecular target: T2, panel of 442 kinases (Homo sapiens, UniProt Q9NY57); conditions: kinase YANK2; compound concentration 10 µM
T2 construct: purchased KINOMEscan
T2 sequence (Q9NY57 whole entry): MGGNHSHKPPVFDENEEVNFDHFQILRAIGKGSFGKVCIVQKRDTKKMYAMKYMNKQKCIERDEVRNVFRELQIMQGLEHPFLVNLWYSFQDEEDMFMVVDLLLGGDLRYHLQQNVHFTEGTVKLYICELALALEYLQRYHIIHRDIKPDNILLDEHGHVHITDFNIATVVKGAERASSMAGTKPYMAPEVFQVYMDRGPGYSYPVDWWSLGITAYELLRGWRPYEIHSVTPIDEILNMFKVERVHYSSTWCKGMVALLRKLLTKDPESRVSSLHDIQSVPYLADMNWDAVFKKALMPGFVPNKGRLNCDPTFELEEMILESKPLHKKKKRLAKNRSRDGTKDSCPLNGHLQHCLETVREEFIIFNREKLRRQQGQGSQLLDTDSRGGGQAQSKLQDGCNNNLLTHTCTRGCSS
Description: as §1

panel of 442 kinases [3] = molecular target: T3, panel of 442 kinases (Homo sapiens, UniProt Q8WU08); conditions: kinase YANK1; compound concentration 10 µM
T3 construct: purchased KINOMEscan
T3 sequence (Q8WU08 whole entry): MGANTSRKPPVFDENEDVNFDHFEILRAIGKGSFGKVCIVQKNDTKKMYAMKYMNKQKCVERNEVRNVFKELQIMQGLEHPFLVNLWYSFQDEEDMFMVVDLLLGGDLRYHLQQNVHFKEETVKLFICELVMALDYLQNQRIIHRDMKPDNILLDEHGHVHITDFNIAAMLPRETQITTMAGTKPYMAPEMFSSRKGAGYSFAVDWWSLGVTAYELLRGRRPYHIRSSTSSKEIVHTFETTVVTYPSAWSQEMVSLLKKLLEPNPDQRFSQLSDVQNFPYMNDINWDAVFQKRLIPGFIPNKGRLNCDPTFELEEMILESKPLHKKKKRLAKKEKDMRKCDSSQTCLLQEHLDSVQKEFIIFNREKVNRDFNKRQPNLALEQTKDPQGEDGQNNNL
Description: as §1

panel of 442 kinases [4] = molecular target: T4, panel of 442 kinases (Homo sapiens, UniProt Q9UK32); conditions: compound concentration 10 µM; for % Ctrl, RSK4(Kin.Dom.1-N-terminal): kinase RSK4(Kin.Dom.1-N-terminal); for % Ctrl, RSK4(Kin.Dom.2-C-terminal): kinase RSK4(Kin.Dom.2-C-terminal)
T4 construct: purchased KINOMEscan
T4 sequence (Q9UK32 whole entry): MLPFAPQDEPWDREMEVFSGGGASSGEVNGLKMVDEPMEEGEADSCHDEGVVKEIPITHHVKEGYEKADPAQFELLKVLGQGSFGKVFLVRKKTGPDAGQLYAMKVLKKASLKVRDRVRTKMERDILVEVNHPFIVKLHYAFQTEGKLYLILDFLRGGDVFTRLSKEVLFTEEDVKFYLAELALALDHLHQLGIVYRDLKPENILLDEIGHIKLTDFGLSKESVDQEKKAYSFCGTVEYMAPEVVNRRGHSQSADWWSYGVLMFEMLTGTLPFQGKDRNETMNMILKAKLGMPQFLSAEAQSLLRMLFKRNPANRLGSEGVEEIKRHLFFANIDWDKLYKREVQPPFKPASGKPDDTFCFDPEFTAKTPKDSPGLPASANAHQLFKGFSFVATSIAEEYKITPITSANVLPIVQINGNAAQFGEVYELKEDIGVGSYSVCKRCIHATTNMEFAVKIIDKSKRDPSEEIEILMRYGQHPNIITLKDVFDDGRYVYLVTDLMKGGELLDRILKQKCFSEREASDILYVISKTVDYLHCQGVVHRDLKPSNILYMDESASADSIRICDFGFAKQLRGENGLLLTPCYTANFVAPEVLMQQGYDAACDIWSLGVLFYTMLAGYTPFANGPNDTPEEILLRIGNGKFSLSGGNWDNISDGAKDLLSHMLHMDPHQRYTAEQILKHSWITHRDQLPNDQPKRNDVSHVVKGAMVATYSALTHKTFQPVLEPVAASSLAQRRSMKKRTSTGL
Description: as §1

T1 sequence (P23443 whole entry): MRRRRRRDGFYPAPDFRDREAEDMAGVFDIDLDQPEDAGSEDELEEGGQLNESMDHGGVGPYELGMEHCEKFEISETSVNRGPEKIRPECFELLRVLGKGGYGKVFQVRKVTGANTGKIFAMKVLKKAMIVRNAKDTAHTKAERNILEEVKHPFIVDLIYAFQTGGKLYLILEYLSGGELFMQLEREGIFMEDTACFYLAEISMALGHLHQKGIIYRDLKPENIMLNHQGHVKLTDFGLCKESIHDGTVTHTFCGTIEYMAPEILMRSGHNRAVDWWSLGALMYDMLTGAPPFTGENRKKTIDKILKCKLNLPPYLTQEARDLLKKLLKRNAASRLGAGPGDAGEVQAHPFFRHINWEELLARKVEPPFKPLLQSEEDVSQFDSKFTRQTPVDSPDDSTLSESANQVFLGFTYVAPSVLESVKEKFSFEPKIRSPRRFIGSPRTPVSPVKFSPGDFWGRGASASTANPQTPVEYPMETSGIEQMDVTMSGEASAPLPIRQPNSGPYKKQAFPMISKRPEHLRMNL

Structure (SMILES) | % Ctrl, S6K1 (panel of 442 kinases [1]) | % Ctrl, YANK2 (panel of 442 kinases [2]) | % Ctrl, YANK1 (panel of 442 kinases [3]) | % Ctrl, RSK4(Kin.Dom.1-N-terminal) (panel of 442 kinases [4]) | % Ctrl, RSK4(Kin.Dom.2-C-terminal) (panel of 442 kinases [4])
COc1cc(C(=O)N2CCC(N3CCN(C)CC3)CC2)ccc1Nc1ncc2c(n1)N(C)c1ccccc1C(=O)N2C [15 (LRRK2-IN-1)] | 100 % Ctrl | 100 % Ctrl | 100 % Ctrl | 92 % Ctrl | 2.2 % Ctrl
COc1cc(C(=O)N2CCC(N3CCN(C)CC3)CC2)ccc1Nc1ncc2c(n1)N1CCc3cccc(c31)C(=O)N2C [Compound 24] | 100 % Ctrl | 100 % Ctrl | 100 % Ctrl | 100 % Ctrl | 5.2 % Ctrl
COc1cc(C(=O)N2CCC(N3CCN(C)CC3)CC2)ccc1Nc1ncc2c(n1)N(C1CCCC1)c1ccccc1C(=O)N2C [Compound 25, 11-cyclopentyl-2-((2-methoxy-4-(4-(4-methylpiperazin-1-yl)piperidine-1-carbonyl)phenyl)amino)-5-methyl-5H-benzo[e]pyrimido[5,4-b][1,4]diazepin-6(11H)-one] | 100 % Ctrl | 100 % Ctrl | 100 % Ctrl | 100 % Ctrl | 93 % Ctrl
CCOc1cc(C(=O)N2CCC(N3CCN(C)CC3)CC2)ccc1Nc1ncc2c(n1)N(C1CCCC1)c1ccccc1C(=O)N2C [Compound 26] | 100 % Ctrl | 100 % Ctrl | 100 % Ctrl | 100 % Ctrl | 98 % Ctrl
